From ChEMBL document CHEMBL4613261, “Metabolic and Pharmaceutical Aspects of Fluorinated Compounds” (J Med Chem, 2020)

Target: T1, Lysine decarboxylase (Hafnia alvei) (UniProt P05033)
T1 sequence (whole entry): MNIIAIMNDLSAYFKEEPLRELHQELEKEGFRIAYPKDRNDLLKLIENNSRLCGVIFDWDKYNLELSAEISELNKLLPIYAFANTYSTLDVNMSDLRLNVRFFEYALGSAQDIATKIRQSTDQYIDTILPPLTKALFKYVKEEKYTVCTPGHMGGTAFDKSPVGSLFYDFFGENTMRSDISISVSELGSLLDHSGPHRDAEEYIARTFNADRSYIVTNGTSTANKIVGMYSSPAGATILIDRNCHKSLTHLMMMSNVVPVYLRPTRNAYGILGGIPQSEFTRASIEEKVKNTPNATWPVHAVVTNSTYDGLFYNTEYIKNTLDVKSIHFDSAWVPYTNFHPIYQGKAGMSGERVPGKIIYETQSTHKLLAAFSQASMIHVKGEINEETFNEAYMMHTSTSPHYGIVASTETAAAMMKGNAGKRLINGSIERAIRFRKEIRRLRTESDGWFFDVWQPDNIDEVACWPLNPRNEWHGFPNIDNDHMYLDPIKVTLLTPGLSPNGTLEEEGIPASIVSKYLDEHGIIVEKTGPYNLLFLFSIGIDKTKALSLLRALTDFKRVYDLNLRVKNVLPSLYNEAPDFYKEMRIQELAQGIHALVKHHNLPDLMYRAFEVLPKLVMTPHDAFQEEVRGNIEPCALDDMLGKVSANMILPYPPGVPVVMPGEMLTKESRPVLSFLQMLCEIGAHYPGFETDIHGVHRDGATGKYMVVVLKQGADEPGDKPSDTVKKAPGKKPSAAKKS
Description: Time dependent inhibition of Hafnia alvei lysine decarboxylase assessed as inactivation half life using L-lysine by Kitz-Wilson analysis

| SMILES | T1/2 [min] |
| --- | --- |
| C=C(F)[C@@](N)(CCCCN)C(=O)O | 3.6 |
| C=C(F)[C@](N)(CCCCN)C(=O)O | 2.8 |
